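The compound was tested at five concentrations on cells cultured in 96-well plates, with a 48-hour exposure period. GI50 = concentration required for 50% inhibition of growth.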 Calls of active or inactive are those of the source. Cut-off read from the data, not from the text of the source: active = GI50 up to about 1.1 µM and inactive = higher.
Tests used:
Assay in all cases: inhibition of tumour cell growth, NCI panel, 48 h
786-0 = tested on: 786-0
SW-620 = tested on: SW-620
COLO 205 = tested on: COLO 205
SK-MEL-5 = tested on: SK-MEL-5
M14 = tested on: M14
SK-MEL-2 = tested on: SK-MEL-2
CAKI-1 = tested on: CAKI-1
HT-29 = tested on: HT-29
SK-MEL-28 = tested on: SK-MEL-28
UACC-62 = tested on: UACC-62
MOLT-4 = tested on: MOLT-4
HCT-15 = tested on: HCT-15
OVCAR-8 = tested on: OVCAR-8
SNB-75 = tested on: SNB-75
NCI-H522 = tested on: NCI-H522
NCI-H460 = tested on: NCI-H460

| Compound | GI50 (786-0) | GI50 (SW-620) | GI50 (COLO 205) | GI50 (SK-MEL-5) | GI50 (M14) | GI50 (SK-MEL-2) | GI50 (CAKI-1) | GI50 (HT-29) | GI50 (SK-MEL-28) | GI50 (UACC-62) | GI50 (MOLT-4) | GI50 (HCT-15) [µM] | GI50 (OVCAR-8) | GI50 (SNB-75) | GI50 (NCI-H522) | GI50 (NCI-H460) |
| --- | --- | --- | --- | --- | --- | --- | --- | --- | --- | --- | --- | --- | --- | --- | --- | --- |
| CCCCCCCCCOC(=S)NC | 18.2 µM (inactive) | 20.9 µM (inactive) | 22.8 µM (inactive) | 19.1 µM (inactive) | 21.1 µM (inactive) | 19.5 µM (inactive) | 20.7 µM (inactive) | 20.6 µM (inactive) | 22.3 µM (inactive) | 23.2 µM (inactive) | 17.1 µM (inactive) | 18.7 | 18.8 µM (inactive) | 26.1 µM (inactive) | 14.7 µM (inactive) | 19.7 µM (inactive) |
| NNC(=O)CCC(=O)Nc1ccc(Cl)cc1Cl | > 100 µM (inactive) | > 100 µM (inactive) | > 100 µM (inactive) | > 100 µM (inactive) | 45.1 µM (inactive) | 54.6 µM (inactive) | > 100 µM (inactive) | > 100 µM (inactive) | > 100 µM (inactive) | 28.8 µM (inactive) | > 100 µM (inactive) | 66.2 | > 100 µM (inactive) | > 100 µM (inactive) | > 100 µM (inactive) | > 100 µM (inactive) |
| O=[N+]([O-])c1cccc(/C=N\NS(=O)(=O)c2ccc(Cl)cc2)c1O | > 100 µM (inactive) | > 100 µM (inactive) | 69.8 µM (inactive) | 73.1 µM (inactive) | 90.8 µM (inactive) | 76.6 µM (inactive) | > 100 µM (inactive) | > 100 µM (inactive) | 46.9 µM (inactive) | 49.7 µM (inactive) | 47.5 µM (inactive) | 52.5 | 79.4 µM (inactive) | > 100 µM (inactive) | 31.8 µM (inactive) | 82.8 µM (inactive) |
| Cc1cc(Cl)ccc1NC(=O)C(=O)Cc1nc2ccc(C(=O)c3ccccc3)cc2nc1O | > 100 µM (inactive) | 97.9 µM (inactive) | > 100 µM (inactive) | 79.6 µM (inactive) | 96.6 µM (inactive) | > 100 µM (inactive) | > 100 µM (inactive) | > 100 µM (inactive) | > 100 µM (inactive) | 70 µM (inactive) | 46.8 µM (inactive) | > 100 | > 100 µM (inactive) | > 100 µM (inactive) | 39.4 µM (inactive) | 96.8 µM (inactive) |
| COC(=O)N/N=C/c1oc(-c2cccc([N+](=O)[O-])c2)c(-c2cccc([N+](=O)[O-])c2)c1[N+](=O)[O-] | > 100 µM (inactive) | > 100 µM (inactive) | > 100 µM (inactive) | > 100 µM (inactive) | > 100 µM (inactive) | – | – | > 100 µM (inactive) | > 100 µM (inactive) | 59.8 µM (inactive) | 24.2 µM (inactive) | > 100 | > 100 µM (inactive) | – | 60.8 µM (inactive) | > 100 µM (inactive) |
| CC(=O)OC(OC(C)=O)c1ncccc1C(=O)OC(C)C | > 100 µM (inactive) | > 100 µM (inactive) | 47.4 µM (inactive) | 38.2 µM (inactive) | > 100 µM (inactive) | > 100 µM (inactive) | > 100 µM (inactive) | 33.3 µM (inactive) | 1.18 µM (inactive) | > 100 µM (inactive) | 35.1 µM (inactive) | 33.8 | > 100 µM (inactive) | 81.8 µM (inactive) | 75.7 µM (inactive) | 11.3 µM (inactive) |
| CN(C)C1=NC2=S(SC(Nc3ccccc3)=N2)S1 (configuration not stated) | 28.8 µM (inactive) | 46.5 µM (inactive) | – | 5.87 µM (inactive) | 58.1 µM (inactive) | 7.62 µM (inactive) | 26.5 µM (inactive) | 33.6 µM (inactive) | 17.2 µM (inactive) | 21.2 µM (inactive) | 10.3 µM (inactive) | 11.9 | 26.6 µM (inactive) | 28.7 µM (inactive) | 10.3 µM (inactive) | 36.1 µM (inactive) |
| O=C(Nc1cc(Cl)ccc1Cl)c1cc2cccc(Br)c2oc1=O | > 100 µM (inactive) | > 100 µM (inactive) | > 100 µM (inactive) | > 100 µM (inactive) | > 100 µM (inactive) | > 100 µM (inactive) | – | > 100 µM (inactive) | > 100 µM (inactive) | > 100 µM (inactive) | > 100 µM (inactive) | > 100 | 57.1 µM (inactive) | 34.9 µM (inactive) | > 100 µM (inactive) | > 100 µM (inactive) |
| CCCCNC(=S)OCCC(C)CCCC(C)C (configuration not stated) | > 100 µM (inactive) | > 100 µM (inactive) | – | > 100 µM (inactive) | > 100 µM (inactive) | > 100 µM (inactive) | > 100 µM (inactive) | > 100 µM (inactive) | 87.9 µM (inactive) | > 100 µM (inactive) | > 100 µM (inactive) | > 100 | > 100 µM (inactive) | 35.3 µM (inactive) | – | > 100 µM (inactive) |

— ChEMBL document CHEMBL1201862, “PubChem BioAssay data set” (2004)
